Results on one molecule are retold here after patent publication US20220354807A1, “USE OF VALERIC ACID DERIVATIVE IN TREATMENT OF DOWN'S SYNDROME” (XIAMEN UNIVERSITY, priority 2019, published 2022).

One data set in a line: Open-field test. In kind it is in vivo, mice. The settings on record: 50 mg/(kg body weight/day) i.p., 21 days, open field 10 minutes. As for the experimental part: After 21 days of continuous administration, 3-month-old male mice were subjected to the behavioral open-field test. (A) Average movement speed of mice in the open field. (B) Total movement distance of mice in the open field. (C) Total time for the mice moving in the center of the open field.
After continuous administration for 21 days, the animal behavior test was performed, in which the open-field test is a behavioral paradigm for evaluating the exercise ability and anxiety of experimental animals. In the open-field test, mice were placed in the center of the open field box (40 cm (L)×40 cm (W)×40 cm (H)), and Smart Video Tracking Software (Panlab, Harvard Apparatus) was used for data acquisition and analysis. Mice were allowed to explore freely in the open field for 10 minutes, and the Mean speed, Total distance and Time in center of mice were recorded.

Data set [1] deals with Down's model mice Ts65Dn. As to the kind of experiment: Synapse number by transmission electron microscopy. The following applies: 50 mg/(kg body weight/day) i.p., 21 days. In kind it is in vivo. From the text: (A) A representative image of a transmission electron micrograph. Arrows indicate synaptic structures, and the scale is 1 m. (B) Statistics result of the number of synapses. (C) Statistics result of the number of presynaptic vesicles. (D) statistical result of the length of postsynaptic density (PSD). (E) Statistical results of the area of postsynaptic density (PSD). Data represents the mean±standard error (SEM) and is statistically analyzed using One-way ANOVA, with 4 mice in each group, and 38-42 fields of view are statistically analyzed respectively. The ns represents no significant difference, i.e., p>0.05, * represents p<0.05.
[…] The pieces were fixed with pre-cooled, fresh 2.5% glutaraldehyde fixative at 4° C. for more than 4 hours. At the end of fixation, the pieces were washed with PBS for 15 min for three times, then dehydrated, sectioned and prepared, and finally the images are collected by transmission electron microscopy.

Data set [2] has as its system Down's model mice Ts65Dn. As to the kind of experiment: Iba1 immunofluorescence of hippocampus (microgliosis), Ts65Dn. The following applies: 50 mg/(kg body weight/day) i.p., 21 days. In kind it is in vivo. From the text: (A) A representative map of immunofluorescence labeled microglia marker Iba1 in the DG region of mice hippocampus, and the scale is 75 m. (B) Statistical results of Iba1 positive cells in mice hippocampus. Data represents the mean±standard error (SEM) and is statistically analyzed using One-way ANOVA, with 4 mice in each group. ** represents p<0.01 and *** represents p<0.001.
(§1) The microglia marker Iba1 and nuclear dye DAPI were respectively labeled by immunofluorescence staining, and then the images were collected by laser confocal fluorescence microscopy.

Data set [3] relates to primary microglia of Dp16 mice. As to the kind of experiment: Phagocytosis of fluorescent spheres by primary microglia. The following applies: 0.6 mM, fluorescent spheres added at 45th hour, staining at 48th hour. In kind it is cell-based. From the text:
(A) Representative images of immunofluorescence labeled microglia marker Iba1, nuclear dye DAPI and fluorescent spheres, and the scale is 10 m. (B) Statistics of fluorescence intensity of fluorescent spheres in each Iba1-positive cell. Data represents the mean±standard error (SEM) and is statistically analyzed using One-way ANOVA. The ns represents no significant difference, i.e., p>0.05, ** represents p<0.01, **** represents p<0.0001.
(§2) Newborn wild-type (WT) mice and Dp16 Down's model mice were placed on ice for 5 min, immersed in pre-cooled 75% alcohol for 10 s, decapitated and stripped of the skull, and the whole brain was removed and placed in pre-cooled HBSS. Under a stereoscope, the vascular membrane of brain tissue was stripped and cut into pieces with tweezers, repeatedly blown and beaten evenly with a 5 ml pipette tip, resuspended in precooled HBSS, and screened with a 100-mesh cell sieve to remove cell debris. […] The cells were resuspended and counted. […] Fluorescent spheres (10000×, Fluoresbrite® microsphere) were added at the 45th hour, and immunofluorescence staining was performed at the 48th hour to label microglia marker Iba1, nuclear dye DAPI and fluorescent spheres GFP, respectively, and then images were collected by laser confocal fluorescence microscopy.

The conditions of data set [4]: 50 mg/(kg body weight/day) i.p., 21 days, plasma.
The conditions of data set [5]: cited from earlier work.
Data set [6] concerns Down's model mice Ts65Dn. As to the kind of experiment: LTP recording in brain slices (Schaffer collateral pathway CA3 to CA1). The class given is in vivo. The following applies: 50 mg/(kg body weight/day) i.p., 21 days.
Description: After 21 days of continuous administration, electrophysiological studies on brain slice were performed. After anesthesia, the mice were incubated in an ice-cooled artificial cerebrospinal fluid (ACSF) with oxygen. After slicing, the brain slices were incubated in ACSF saturated with oxygen at 32° C. for 1 H. The recording electrode was placed in the radiation layer of CA1 area of Schaffer collateral pathway, and the stimulating electrode was placed in CA3 area. Stimulation intensity was 30% of the maximum value of fEPSP. After the stable baseline of fEPSP was recorded for 20 mins, LTP was induced by high frequency stimulation (HFS) (2 strings of stimulation, each of which contained 100 stimulation pulses, and was separated by 30 seconds) and recorded for 60 mins.
Data set [7] has as its system Down's model mice Dp16. As to the kind of experiment: Iba1 immunofluorescence of hippocampus (microgliosis), Dp16. In kind it is in vivo. The settings on record: 30 mg/(kg body weight/day) intragastric, 21 days.
Description: (A) A representative map of immunofluorescence labeled microglia marker Iba1 in the DG region of mice hippocampus, and the scale is 100 m. (B) Statistical results of Iba1 positive cells in mice hippocampus. Data represents the mean±standard error (SEM) and is statistically analyzed using One-way ANOVA, with 8 mice in each group. **** represents p<0.0001.
as §1

Data set [8] in a line: Body weight after 21 days of administration. In kind it is in vivo. The settings on record: WT and Ts65Dn mice, 50 mg/(kg body weight/day) i.p. How it is done:
All of the used mice were 3-month-old male mice administered continuously for 21 days, and then weighed.
The mice were administered continuously for 21 days and then weighed.

The test system of another data set is Alzheimer's disease mice. The settings on record: by inhibiting the production of β-amyloid protein in the brain; cited from earlier work.
Data set [9] relates to Down's model mice Dp16. As to the kind of experiment: Morris water maze test, Dp16. The settings on record: 30 mg/(kg body weight/day) intragastric, 21 days. The class given is in vivo. From the text: (§3) After 21 days of continuous administration, 3-month-old male mice were subjected to the Morris water maze test. (A) The latency for the mice to reach the platform during the 6-day water maze hidden platform training. (B) The average speed of swimming for the mice in the water maze of the platform test on day 7. (C) The latency for the mice to reach the area where the platform is located for the first time in the platform test on day 7. (D) The number of times for which the mice shuttled in the area where the platform is located in the platform test on day 7. (E) The swimming trajectory for the mice in the platform test on day 7. […] The ns represents no significant difference, i.e., p>0.05, * represents p<0.05, ** represents p<0.01, *** represents p<0.001.
After continuous administration for 21 days, learning and memory related animal behavior test Morris water maze test was performed. Smart Video Tracking Software (Panlab, Harvard Apparatus) was used for data acquisition and analysis. The Morris water maze is a circular water tank with a diameter of 90 cm, a height of 35 cm, and a water depth of 30 cm. The water temperature was maintained at 22° C. Different markers were placed in the visual field of mice (pool wall), and four water entry points (E, S, W, N) were marked on the pool wall so that the maze was divided into four quadrants. A platform with a diameter of 6 cm was installed in the ES quadrant, so that the water surface was 1 cm higher than the platform. Mice were trained twice a day and put into the water from E, S, W and N entry points facing the wall of the pool, respectively. The movement trajectory of the mice was captured by a camera, and the time from entering the water to climbing up the platform was recorded, that is, Escape latency. The system set a test time of 60 seconds, and the system automatically shut down after the mice climbed on the platform and stay for 10 seconds. […] The number of times of crossing in the original platform area (Target crossing) and the Latency of 1st entrance to target were recorded. […]

For data set [10], the system named is primary microglia of Dp16 mice. The experiment in a line: Phagocytosis of myelin debris by primary microglia. In kind it is cell-based. The settings on record: 0.6 mM, myelin debris added at 45 hours, staining at 48 hours.
Description: (A) Representative images of immunofluorescence labeled microglia marker Iba1, nuclear dye DAPI and myelin sheath debris (pHrodo is pre-labeled on myelin sheath), and the scale is 20 m. (B) Statistics of fluorescence intensity of myelin sheath debris in each Iba1-positive cell. Data represents the mean±standard error (SEM) and is statistically analyzed using One-way ANOVA. The ns represents no significant difference, i.e., p>0.05, ** represents p<0.01, *** represents p<0.001, **** represents p<0.0001.
as §2, with “Myelin debris (1.2 μg/L)” for “Fluorescent spheres (10000×, Fluoresbrite® microsphere)”, “45 hours,” for “the 45th hour,”, “48 hours” for “the 48th hour”, “myelin debris (pHrodo was labeled on the myelin sheath in advance),” for “fluorescent spheres GFP,”

Data set [11] relates to Down's model mice Dp16. The experiment in a line: Iba1/CD68 immunofluorescence of hippocampus (microglial phagocytic function), Dp16. The following applies: 30 mg/(kg body weight/day) intragastric, 21 days. In kind it is in vivo. From the text:
(A) A representative map of immunofluorescence labeled microglia marker Iba1 and lysosomal phagocytosis marker CD68 in the region of mice hippocampus, and the scale is 50 m. (B) The statistical results of the proportion of Iba1-positive and CD68-positive cells in the total Iba1-positive cells in the mice hippocampus. Data represents the mean±standard error (SEM) and is statistically analyzed using One-way ANOVA, with 8 mice in each group. The ns represents no significant difference, i.e., p>0.05, *** represents p<0.001, **** represents p<0.0001.
The microglia marker Iba1 and lysosomal phagocytosis markers CD68 were respectively labeled by immunofluorescence staining, and then the images were collected by laser confocal fluorescence microscopy.

Data set [12] deals with Down's model mice Ts65Dn. As to the kind of experiment: Morris water maze test, Ts65Dn. The class given is in vivo. The settings on record: 50 mg/(kg body weight/day) i.p., 21 days.
Description: as §3, with “p>0.05,” for “p>0.05, * represents p<0.05,”, “p<0.001, **** represents p<0.0001.” for “p<0.001.”
After continuous administration for 21 days, learning and memory related animal behavior test Morris water maze test was performed. Smart Video Tracking Software (Panlab, Harvard Apparatus) was used for data acquisition and analysis. The Morris water maze is a circular water tank with a diameter of 90 cm, a height of 35 cm, and a water depth of 30 cm. The water temperature was maintained at 22° C. Different markers were placed in the visual field of mice (pool wall), and four water entry points (E, S, W, N) were marked on the pool wall so that the maze was divided into four quadrants. A platform with a diameter of 6 cm was installed in the ES quadrant, so that the water surface was 1 cm higher than the platform. Mice were trained twice a day and put into the water from E, S, W and N entry points facing the wall of the pool, respectively. The movement trajectory of the mice was captured by a camera, and the time from entering the water to climbing up the platform was recorded, that is, Escape latency. The system set a test time of 60 seconds, and the system automatically shut down after the mice climbed on the platform and stay for 10 seconds. […] The positioning navigation experiment last for 6 days, and on day 7, the platform was removed. Mice were placed on the opposite side of the platform to the wall of the pool, and the space exploration experiment was carried out. The number of times of crossing in the original platform area (Target crossing) and the Latency of 1st entrance to target were recorded.

As to `CCCC(CCC)C(=O)O` [VPA, sodium valproate], in the data set “Open-field test”, the “anxiety-related behaviors (Time in center)” value is “do not show anxiety-related behaviors” and the “locomotor ability (Mean speed, Total distance)” value is reported as “no significant effects”. For the same molecule, the “number of synapses in the hippocampal neurons” value in the data set on Down's model mice Ts65Dn [1] is “significantly increases”. Also, the “number of microglia in the hippocampus (Iba1 positive cells)” value with Down's model mice Ts65Dn [2] is “significantly reduces”. Further, in data set [3], the “phagocytic function of fluorescent spheres by primary microglia” value is on record as “significantly enhances”. Moreover, the “toxic effects on mice (blood biochemical analysis)” value in data set [4] was “no significant toxic effects”. For the same molecule, the “binding to plasma proteins in blood” value in data set [5] (blood) is “mostly combined with plasma proteins”. Further, in data set [5] (oral administration), the “absorption by oral administration” value is “absorbed rapidly and completely”. Further, the “Long term potentiation (LTP) of Schaffer collateral pathway from hippocampal CA3 to CA1” value with Down's model mice Ts65Dn [6] is on record as “significantly enhances”. The “number of microglia in the hippocampus (Iba1 positive cells)” value in the data set with Down's model mice Dp16 [7] was “significantly reduces”. In data set [8], the “body weight of mice” value was “does not affect”. The “cognitive function of Alzheimer's disease mice” value in the data set with Alzheimer's disease mice is recorded as “reverse the cognitive function”. For the same molecule, in the data set on Down's model mice Dp16 [9], the “Latency of 1st entrance to target, day 7” value was “reduces”; the “number of times the mouse shuttled the area where the platform was located, day 7” value was “significantly increases”; the “spatial learning and memory deficits” value was “significantly reverse”. Moreover, the “phagocytic function of myelin debris by primary microglia” value in data set [10] is recorded as “significantly enhances”. Moreover, in the data set on Down's model mice Dp16 [11], the “phagocytic function of hippocampal microglial cells (Iba1-positive and CD68-positive cells)” value is given as “significantly enhances”. Also, in the data set on Down's model mice Ts65Dn [12], the “Latency of 1st entrance to target, day 7” value was “reduces”; the “latency to search the platform (Escape latency), first 6 days of training” value is recorded as “significantly reduce”; the “number of times the mouse shuttled the area where the platform was located (Target crossing), day 7” value is on record as “significantly increases”; the “spatial learning and memory deficits” value is given as “significantly reverse”.
